Several values for one entry are separate records, joined by “and”; a condition that tells them apart may be missing. Equal entries are not always repeated. Toxic doses and inconclusive results are not listed.
Test system: B6C3F1 mice, B16 melanoma ip, median survival T/C
Assay: NCI In Vivo Anticancer Drug Screen. Data for tumor model B16 Melanoma (intraperitoneal) in B6C3F1 mice
Conditions: endpoint: median survival time, schedule: Q01DX009 (ip), higher = longer survival
Outline: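 Values are T/C ratios: the measurement in treated animals divided by that in vehicle-treated controls, using survival or tumor size in mice carrying transplantable tumors.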

[1] = dose: 3.12 mg/kg/injection, vehicle: saline with Tween-80
[2] = dose: 12.5 mg/kg/injection, vehicle: saline with Tween-80
[3] = dose: 25.0 mg/kg/injection, vehicle: saline with Tween-80
[4] = dose: 50.0 mg/kg/injection, vehicle: saline with Tween-80

`CCCNC1=C(C)C(=O)C2=C(C1=O)[C@H](COC(N)=O)[C@]1(OC)[C@@H]3N[C@@H]3CN21` was tested, and the T/C (dose: 0.39 mg/kg/injection, vehicle: Klucel (hydroxypropylcellulose) (HPC)) was 104 % of control, the T/C (dose: 0.39 mg/kg/injection, vehicle: saline) was 115 % of control and the T/C (dose: 0.78 mg/kg/injection, vehicle: Klucel (hydroxypropylcellulose) (HPC)) was 105 % of control. The T/C (dose: 1.56 mg/kg/injection, vehicle: Klucel (hydroxypropylcellulose) (HPC)) was 105 % of control, the T/C (dose: 1.56 mg/kg/injection, vehicle: saline) was 155 % of control and the T/C (dose: 3.12 mg/kg/injection, vehicle: Klucel (hydroxypropylcellulose) (HPC)) was 96 % of control. The T/C (dose: 3.12 mg/kg/injection, vehicle: saline) was 173 % of control and the T/C (dose: 6.25 mg/kg/injection, vehicle: Klucel (hydroxypropylcellulose) (HPC)) was 111 % of control.

In the case of `O/N=C/c1ccccc1O.O/N=C/c1ccccc1O.[Cu]`, the T/C (dose: 1.56 mg/kg/injection, vehicle: saline with Tween-80) is reported as 94 % of control and 95 % of control, the T/C [1] is reported as 110 % of control and 86 % of control and the T/C (dose: 6.25 mg/kg/injection, vehicle: saline with Tween-80) is reported as 106 % of control. For the same compound, the T/C [2] was 113 % of control and 88 % of control, the T/C [3] was 95 % of control and the T/C [4] was 95 % of control.

With `O=S(O)O` the T/C (dose: 50.0 mg/kg/injection, vehicle: saline) was 107 % of control, the T/C (dose: 100.0 mg/kg/injection, vehicle: saline) was 115 % of control and the T/C (dose: 200.0 mg/kg/injection, vehicle: saline) was 98 % of control. For the same compound, the T/C (dose: 400.0 mg/kg/injection, vehicle: saline) was 102 % of control.

With `CCCCC(NC(=O)OC(C)(C)C)C(=O)O` (stereo unspecified) the T/C (dose: 100.0 mg/kg/injection, vehicle: Klucel (hydroxypropylcellulose) (HPC)) was 97 % of control, the T/C (dose: 200.0 mg/kg/injection, vehicle: Klucel (hydroxypropylcellulose) (HPC)) was 111 % of control and the T/C (dose: 400.0 mg/kg/injection, vehicle: Klucel (hydroxypropylcellulose) (HPC)) was 90 % of control.

With `CN(C)CCNc1ccc(NCCN(C)C)c2c1C(=O)c1ccccc1C2=O` the T/C (dose: 20.0 mg/kg/injection, vehicle: distilled water + Tween-80) was 117 % of control.

With `BrC1CC(Br)c2c1c1c(c3c2C(Br)CC3Br)C(Br)CC1Br` (stereo unspecified) the T/C [2] was 108 % of control and 105 % of control, the T/C [3] was 114 % of control and 117 % of control and 123 % of control and the T/C [4] was 114 % of control. For the same compound, the T/C (dose: 100.0 mg/kg/injection, vehicle: saline with Tween-80) was 118 % of control and 93 % of control and the T/C (dose: 200.0 mg/kg/injection, vehicle: saline with Tween-80) was 123 % of control.

For `Nc1ccc(C(OC(=O)c2cc3ccccc3c(Cc3c(O)c(C(=O)OC(c4ccc(N)cc4)(c4ccc(N)cc4)c4ccc(N)cc4)cc4ccccc34)c2O)(c2ccc(N)cc2)c2ccc(N)cc2)cc1`, the T/C (dose: 0.78 mg/kg/injection, vehicle: saline with Tween-80) was 112 % of control and 96 % of control, the T/C [1] was 111 % of control and 107 % of control and the T/C (dose: 3.13 mg/kg/injection, vehicle: saline with Tween-80) was 104 % of control.

`O=C(Nc1ccc([N+](=O)[O-])cc1)Nc1nccs1` was tested, and the T/C (dose: 12.5 mg/kg/injection, vehicle: distilled water + Tween-80) was 111 % of control and 120 % of control, the T/C (dose: 25.0 mg/kg/injection, vehicle: distilled water + Tween-80) was 111 % of control and the T/C (dose: 100.0 mg/kg/injection, vehicle: distilled water + Tween-80) was 105 % of control.

With `CC(C)([NH-])CO.CC(C)([NH-])CO.[Cl][Cd][Cl]` the T/C (dose: 0.31 mg/kg/injection, vehicle: saline with Tween-80) was 90 % of control, the T/C (dose: 0.63 mg/kg/injection, vehicle: saline with Tween-80) was 89 % of control and the T/C (dose: 1.25 mg/kg/injection, vehicle: saline with Tween-80) was 87 % of control.

For `COc1cc2c3c(cccc3c1)C(=O)N(CCN(C)C)C2=O`, the T/C (dose: 5.0 mg/kg/injection, vehicle: saline with Tween-80) was 119 % of control and 95 % of control, the T/C (dose: 10.0 mg/kg/injection, vehicle: saline with Tween-80) was 115 % of control and 100 % of control and the T/C (dose: 20.0 mg/kg/injection, vehicle: saline with Tween-80) was 110 % of control and 100 % of control and 105 % of control. For the same compound, the T/C (dose: 40.0 mg/kg/injection, vehicle: saline with Tween-80) was 109 % of control and 121 % of control and 104 % of control and the T/C (dose: 80.0 mg/kg/injection, vehicle: saline with Tween-80) was 107 % of control.

— PubChem BioAssay AID200 (DTP/NCI, 2004)
